Data reported in patent US5962480A, “Drug for ameliorating brain diseases” (Wakunaga Pharmaceutical Co., Ltd., priority 1995, dated 1999).
Counter-ions that a name gives are not always drawn. Like-named read-outs stand apart in the source and are kept apart here.

Columns and labels:
hippocampus neurons = test: inhibition of reduction in survival rate of neurons, hippocampus (number of surviving cells); type: cell-based, rat; conditions: for viability at 10 µg/mL / viability at 1 µg/mL / viability at 0.1 µg/mL / viability at 0.01 µg/mL / viability at 0.001 µg/mL: Rattus norvegicus, Neuron, 72 h, control 100%; for viability at 10 µg/mL: 10^-5 g/ml; for viability at 1 µg/mL: 10^-6 g/ml; for viability at 0.1 µg/mL: 10^-7 g/ml; for viability at 0.01 µg/mL: 10^-8 g/ml; for viability at 0.001 µg/mL: 10^-9 g/ml; for inhibitory effect against reduction in survival rate of neurons (in words): hippocampus cells, Example 2
Experimental: (§1) From a rat at the 18th day of pregnancy (having an 18 -day old embryo) the uterus was aseptically removed under etherification, and the fetus was obtained. The whole brain was collected from the fetus. From the brain placed in an L-15 medium were removed under a microscope the hippocampus, striate body, septum, cerebral cortex, and cerebellum. They were respectively minced with a knife. The minced tissue was treated by the addition of trypsin (0.25%) and DNase (0.01%) for 30 minutes at 37° C. to thereby isolate cells. The thus-isolated cells were suspended in Eagle's MEM medium supplemented with 10% fetal calf serum, and inoculated at a concentration of 4×10^4 cells/cm^2 into wells of a 48-well plate which had been coated with poly-L-lysin in advance. Following incubation for 24 hours, the medium was replaced by a serum-free DMEM/F-12 medium containing the drug. After three-days' additional incubation (six days for the striate body), the cells were fixed, stained, and the number of surviving cells in each well was counted. Compounds (2) through (14) were tested analogously to Example 1 using hippocampus cells prepared in a manner similar to Example 1. As structural comparative compounds, the following compounds were used: 4H-pyran-4-one (hereinafter referred as Compound (15) and 3-methoxy-6 -hydroxymethyl-4H-pyran-4-one (hereinafter referred to as Compound (16)).

[1] = test system: hippocampus cells (neurites); test: branching promotion effect on neurites; type: cell-based, rat; conditions: one and two days after addition of the drug
Experimental: The hippocampus cells obtained in a manner similar to that in Example 1 were incubated for 24 hours in a medium containing fetal calf serum, then for a further 24 hours in a serum-free medium. Subsequently, the drug was added. When one day and two days elapsed after addition of the drug, photographs were taken of the same cells. The number of branches from the longest neurite was counted.

[2] = oral toxicity (LD50), rats; conditions: rat, in vivo, read-out: 50% lethal death (LD50)
cerebral cortex neurons = test: inhibition of reduction in survival rate of neurons, cerebral cortex (number of surviving cells); type: cell-based; conditions: Rattus norvegicus, Cerebral cortex neuron, 72 h, 3 days, control 100%
Experimental: as §1, with “counted.” for “counted. Compounds (2) through (14) were tested analogously to Example 1 using hippocampus cells prepared in a manner similar to Example 1. As structural comparative compounds, the following compounds were used: 4H-pyran-4-one (hereinafter referred as Compound (15) and 3-methoxy-6 -hydroxymethyl-4H-pyran-4-one (hereinafter referred to as Compound (16)).”

cerebellum neurons = test: inhibition of reduction in survival rate of neurons, cerebellum (number of surviving cells); type: cell-based; conditions: Rattus norvegicus, Neuron, 72 h, 3 days, control 100%
Experimental: as §1, with “counted.” for “counted. Compounds (2) through (14) were tested analogously to Example 1 using hippocampus cells prepared in a manner similar to Example 1. As structural comparative compounds, the following compounds were used: 4H-pyran-4-one (hereinafter referred as Compound (15) and 3-methoxy-6 -hydroxymethyl-4H-pyran-4-one (hereinafter referred to as Compound (16)).”

brain neurons = test: inhibition of reduction of brain neurons (overall statement); type: cell-based, rat; conditions: concentration-dependent; activity of control: 100%
Experimental: as §1, with “counted.” for “counted. Compounds (2) through (14) were tested analogously to Example 1 using hippocampus cells prepared in a manner similar to Example 1. As structural comparative compounds, the following compounds were used: 4H-pyran-4-one (hereinafter referred as Compound (15) and 3-methoxy-6 -hydroxymethyl-4H-pyran-4-one (hereinafter referred to as Compound (16)).”

striate body neurons = test: inhibition of reduction in survival rate of neurons, striate body (number of surviving cells); type: cell-based; conditions: Rattus norvegicus, Neuron, 144 h, 6 days, control 100%
Experimental: as §1, with “counted.” for “counted. Compounds (2) through (14) were tested analogously to Example 1 using hippocampus cells prepared in a manner similar to Example 1. As structural comparative compounds, the following compounds were used: 4H-pyran-4-one (hereinafter referred as Compound (15) and 3-methoxy-6 -hydroxymethyl-4H-pyran-4-one (hereinafter referred to as Compound (16)).”

[3] = oral toxicity (LD50), mice; conditions: mouse, in vivo, read-out: 50% lethal death (LD50)
septum neurons = test: inhibition of reduction in survival rate of neurons, septum (number of surviving cells); type: cell-based; conditions: Rattus norvegicus, Neuron, 72 h, 3 days, control 100%
Experimental: as §1, with “counted.” for “counted. Compounds (2) through (14) were tested analogously to Example 1 using hippocampus cells prepared in a manner similar to Example 1. As structural comparative compounds, the following compounds were used: 4H-pyran-4-one (hereinafter referred as Compound (15) and 3-methoxy-6 -hydroxymethyl-4H-pyran-4-one (hereinafter referred to as Compound (16)).”

[4] = read-out: Inhibitory effect against reduction in survival rate of neurons (survival rate class)
[5] = 3 days, read-out: Number of surviving cells, Hippocampus

## O=c1cc(C=Cc2ccccc2)occ1O [Compound (12), 3-Hydroxy-6-styryl-4H-pyran-4-one]
Hippocampus neurons; [4]
  viability at 10 µg/mL: ≤ 90%
  viability at 1 µg/mL: 110 to 130%
  viability at 0.1 µg/mL: 110 to 130%
  viability at 0.01 µg/mL: 90 to 110%
  viability at 0.001 µg/mL: 90 to 110%

## Cc1cc(=O)c(O)c(C)o1 [Compound (3), 3-Hydroxy-2,6-dimethyl-4H-pyran-4-one]
[1]
  branching promotion effect on neurites (in words): confirmed to have a branching promotion effect on neurites
Hippocampus neurons; [4]
  viability at 10 µg/mL: 110 to 130%
  viability at 1 µg/mL: 130 to 150%
  viability at 0.1 µg/mL: 130 to 150%
  viability at 0.01 µg/mL: 110 to 130%
  viability at 0.001 µg/mL: 90 to 110%

## Cc1cc(=O)c(O)c(CN(C)C)o1 [Compound (7), 3-Hydroxy-6-methyl-2-dimethylaminomethyl-4H-pyran-4-one-HCl]
Hippocampus neurons; [4]
  viability at 10 µg/mL: 110 to 130%
  viability at 1 µg/mL: 110 to 130%
  viability at 0.1 µg/mL: 90 to 110%
  viability at 0.01 µg/mL: 90 to 110%
  viability at 0.001 µg/mL: 90 to 110%

## O=C1C=C(CO)N=CC1O (stereo not drawn) [Compound (14), 3-Hydroxy-6-hydroxymethyl-4-pyridone]
Hippocampus neurons; [4]
  viability at 10 µg/mL: 110 to 130%
  viability at 1 µg/mL: 90 to 110%
  viability at 0.1 µg/mL: 90 to 110%
  viability at 0.01 µg/mL: 90 to 110%
  viability at 0.001 µg/mL: 90 to 110%

## CCCCCc1oc(CO)cc(=O)c1O [Compound (9), 3-Hydroxy-6-hydroxymethyl-2-pentyl-4H-pyran-4-one]
Hippocampus neurons; [4]
  viability at 10 µg/mL: 110 to 130%
  viability at 1 µg/mL: 90 to 110%
  viability at 0.1 µg/mL: 90 to 110%
  viability at 0.01 µg/mL: 90 to 110%
  viability at 0.001 µg/mL: 90 to 110%

## CCCc1oc(C)cc(=O)c1O [Compound (4), 3-Hydroxy-6-methyl-2-propyl-4H-pyran-4-one]
Hippocampus neurons; [4]
  viability at 1 µg/mL: 90 to 110%
  viability at 0.1 µg/mL: 110 to 130%
  viability at 0.01 µg/mL: 90 to 110%
  viability at 0.001 µg/mL: 90 to 110%

## Cc1cc(=O)c(O)c(CO)o1 [Compound (6), 3-Hydroxy-6-methyl-2-hydroxymethyl-4H-pyran-4-one]
Hippocampus neurons; [4]
  viability at 10 µg/mL: 110 to 130%
  viability at 1 µg/mL: 110 to 130%
  viability at 0.1 µg/mL: 110 to 130%
  viability at 0.01 µg/mL: 90 to 110%
  viability at 0.001 µg/mL: 90 to 110%

## CCCCCc1oc(C)c(OC)c(=O)c1O [Compound (1), 3-Hydroxy-6-methyl-5-methoxy-2-pentyl-4H-pyran-4-one]
[2]
  LD50: ≥ 1000 mg/kg
Cerebral cortex neurons; 10^-6 g/ml
  viability at 1 µg/mL: 90.2%
Cerebral cortex neurons; 10^-7 g/ml
  viability at 0.1 µg/mL: 125%
Cerebral cortex neurons; 10^-8 g/ml
  viability at 0.01 µg/mL: 107%
Cerebral cortex neurons; 10^-9 g/ml
  viability at 0.001 µg/mL: 104%
Cerebellum neurons; 10^-6 g/ml
  viability at 1 µg/mL: 65.3%
Cerebellum neurons; 10^-7 g/ml
  viability at 0.1 µg/mL: 147%
Cerebellum neurons; 10^-8 g/ml
  viability at 0.01 µg/mL: 136%
Cerebellum neurons; 10^-9 g/ml
  viability at 0.001 µg/mL: 137%
Brain neurons
  concentration range of effect of inhibiting reduction of neurons: 1 to 100 ng/mL
Striate body neurons; 10^-6 g/ml
  viability at 1 µg/mL: 83.8%
Striate body neurons; 10^-7 g/ml
  viability at 0.1 µg/mL: 160%
Striate body neurons; 10^-8 g/ml
  viability at 0.01 µg/mL: 139%
Striate body neurons; 10^-9 g/ml
  viability at 0.001 µg/mL: 126%
[3]
  LD50: ≥ 1000 mg/kg
Septum neurons; 10^-6 g/ml
  viability at 1 µg/mL: 71.6%
Septum neurons; 10^-7 g/ml
  viability at 0.1 µg/mL: 157%
Septum neurons; 10^-8 g/ml
  viability at 0.01 µg/mL: 150%
Septum neurons; 10^-9 g/ml
  viability at 0.001 µg/mL: 128%
[1]
  branching promotion effect on neurites (in words): confirmed to have a branching promotion effect on neurites
Hippocampus neurons; [5]
  viability at 1 µg/mL: 57.8%
  viability at 0.1 µg/mL: 146%
  viability at 0.01 µg/mL: 134%
  viability at 0.001 µg/mL: 109%

## O=c1ccocc1 [Compound (15), 4H-pyran-4-one, reference compound]
Hippocampus neurons; [4]
  viability at 10 µg/mL: 90 to 110%
  viability at 1 µg/mL: 90 to 110%
  viability at 0.1 µg/mL: 90 to 110%
  viability at 0.01 µg/mL: 90 to 110%
  viability at 0.001 µg/mL: 90 to 110%
Hippocampus neurons
  inhibitory effect against reduction in survival rate of neurons (in words): no inhibitory effect

## Cc1cc(=O)c(O)co1 [Compound (2), 3-Hydroxy-6-methyl-4H-pyran-4-one]
Hippocampus neurons; [4]
  viability at 10 µg/mL: 130 to 150%
  viability at 1 µg/mL: 110 to 130%
  viability at 0.1 µg/mL: 90 to 110%
  viability at 0.01 µg/mL: 90 to 110%
  viability at 0.001 µg/mL: 90 to 110%

## CCCCCc1oc(C)c(O)c(=O)c1O [Compound (11), 3,5-Dihydroxy-6-methyl-2-pentyl-4H-pyran-4-one]
Hippocampus neurons; [4]
  viability at 1 µg/mL: ≤ 90%
  viability at 0.1 µg/mL: 130 to 150%
  viability at 0.01 µg/mL: 90 to 110%
  viability at 0.001 µg/mL: 90 to 110%

## CCCCC(O)c1oc(CO)cc(=O)c1O (stereo not drawn) [Compound (10), 3-Hydroxy-6-hydroxymethyl-2-(1'-hydroxypentyl)-4H-pyran-4-one]
Hippocampus neurons; [4]
  viability at 10 µg/mL: 130 to 150%
  viability at 1 µg/mL: 110 to 130%
  viability at 0.1 µg/mL: 90 to 110%
  viability at 0.01 µg/mL: 90 to 110%
  viability at 0.001 µg/mL: 90 to 110%

## COc1coc(CO)cc1=O [Compound (16), 3-methoxy-6-hydroxymethyl-4H-pyran-4-one, reference compound]
Hippocampus neurons; [4]
  viability at 10 µg/mL: 90 to 110%
  viability at 1 µg/mL: 90 to 110%
  viability at 0.1 µg/mL: 90 to 110%
  viability at 0.01 µg/mL: 90 to 110%
  viability at 0.001 µg/mL: 90 to 110%
Hippocampus neurons
  inhibitory effect against reduction in survival rate of neurons (in words): no inhibitory effect

## O=c1cc(CO)occ1O [Compound (8), 3-Hydroxy-6-hydroxymethyl-4H-pyran-4-one]
Hippocampus neurons; [4]
  viability at 10 µg/mL: 110 to 130%
  viability at 1 µg/mL: 110 to 130%
  viability at 0.1 µg/mL: 90 to 110%
  viability at 0.01 µg/mL: 90 to 110%
  viability at 0.001 µg/mL: 90 to 110%

## CCCCCc1oc(C)cc(=O)c1O [Compound (5), 3-Hydroxy-6-methyl-2-pentyl-4H-pyran-4-one]
Hippocampus neurons; [4]
  viability at 1 µg/mL: ≤ 90%
  viability at 0.1 µg/mL: 110 to 130%
  viability at 0.01 µg/mL: 90 to 110%
  viability at 0.001 µg/mL: 90 to 110%

## CC1=CC(=O)C(O)C=N1 (stereo not drawn) [Compound (13), 3-Hydroxy-6-methyl-4-pyridone]
Hippocampus neurons; [4]
  viability at 10 µg/mL: 130 to 150%
  viability at 1 µg/mL: 110 to 130%
  viability at 0.1 µg/mL: 90 to 110%
  viability at 0.01 µg/mL: 90 to 110%
  viability at 0.001 µg/mL: 90 to 110%
